In the OligoGym collection:
Bases are written 5' to 3'; sugars and linkages follow in the same order, as letters with counts (s phosphorothioate, o phosphodiester; PS: all linkages phosphorothioate). The collection does not say whether C is 5-methylated. l = locked nucleic acid (LNA); d = 2'-deoxy (DNA)

molecular target: Tau; test: rat primary cortical neurons, FLIPR, 25 uM ASO

Question: How did the calcium oscillation score turn out when “ACCTCCTGGTTTATGATGGA (sugars l3 d14 l3, PS)” was run?
Answer: 0 % of control

Question: “CCTCTAGTTTTACCTAA (sugars l2 d11 l4, PS)” was tested. Which calcium oscillation score did it give?
Answer: 72.9 % of control

Question: With “GAGACCACATTATCATCCAT (sugars l3 d14 l3, PS)” as the sequence, how does the calcium oscillation score read?
Answer: 52.4 % of control

Question: Which calcium oscillation score does the source give for AGTCCCGTCTTTGC (sugars l3 d8 l3, PS) here?
Answer: 2.61 % of control

Question: Which calcium oscillation score does the source give for “AGTTCCCACAATTCCTA (sugars l2 d13 l2, PS)” here?
Answer: 38.7 % of control

Question: How did the calcium oscillation score turn out when “ACTTGTACACGATCTCCGCC (sugars l3 d14 l3, PS)” was run?
Answer: 103 % of control

Question: Which calcium oscillation score does the source give for “CCAGACCATCAATTTCC (sugars l2 d13 l2, PS)” here?
Answer: 83.3 % of control

Question: For “AGACCACATTTCCATCC (sugars l2 d13 l2, PS)”, which calcium oscillation score is on record?
Answer: 72 % of control

Question: How did the calcium oscillation score turn out when “CAAAACATTCTCACCAAACC (sugars l4 d14 l2, PS)” was run?
Answer: 84.8 % of control

Question: With “CCCAGCGTGATCTTCCATCA (sugars ldlllddddddddddlldll, PS)” as the sequence, how does the calcium oscillation score read?
Answer: 124 % of control

Question: How did the calcium oscillation score turn out when AAGCAATAGCAAACA (sugars l3 d9 l3, PS) was run?
Answer: 142 % of control

Question: With “AAACCAACTCAACATTACCC (sugars l3 d15 l2, PS)” as the sequence, how does the calcium oscillation score read?
Answer: 94.3 % of control

Question: With “CTTCTCCAGTATTTCTTC (sugars l2 d13 l3, PS)” as the sequence, how does the calcium oscillation score read?
Answer: 69.4 % of control

Question: With “AAACATCTAAACACCTCAAT (sugars l4 d12 l4, PS)” as the sequence, how does the calcium oscillation score read?
Answer: 78.9 % of control

Question: For TTGCTCAGGTCAACTG (sugars l3 d10 l3, PS), which calcium oscillation score is on record?
Answer: 42.9 % of control

Question: Which calcium oscillation score does the source give for ATGTTGCCTAATGAGC (sugars l3 d10 l3, PS) here?
Answer: 69 % of control

Question: For “TATTTCCAAATTCACTTTTA (sugars l4 d10 l1 d2 l3, PS)”, which calcium oscillation score is on record?
Answer: 127 % of control

Question: With “ACTTTATTTCCAAATTCACT (sugars l4 d11 l5, PS)” as the sequence, how does the calcium oscillation score read?
Answer: 115 % of control

Question: Which calcium oscillation score does the source give for “CTTGGGTGGAGTACGGACCA (sugars l3 d14 l3, PS)” here?
Answer: 0 % of control

Question: For GCGGCGCAGGCGCGAG (sugars l3 d10 l3, PS), which calcium oscillation score is on record?
Answer: 73.6 % of control

Question: Which calcium oscillation score does the source give for GTCGATGCTGCCGGTG (sugars l3 d10 l3, PS) here?
Answer: 0 % of control

Question: Which calcium oscillation score does the source give for TTAGCAGAGGAACGTG (sugars l3 d10 l3, PS) here?
Answer: 25.9 % of control

Question: Which calcium oscillation score does the source give for CACAACCCAAGATTCC (sugars l3 d10 l3, PS) here?
Answer: 58.8 % of control

Question: Which calcium oscillation score does the source give for “CTCCAATTTTAAACTTAAA (sugars l4 d11 l4, PS)” here?
Answer: 70.2 % of control

Question: How did the calcium oscillation score turn out when “CACCCTTACACATAGCT (sugars l3 d12 l2, PS)” was run?
Answer: 55.6 % of control

Question: With “CTGTCACTATCACTTCA (sugars l2 d11 l4, PS)” as the sequence, how does the calcium oscillation score read?
Answer: 75.3 % of control

Question: “CCAGGGACCCAATCTTCGAC (sugars l3 d14 l3, PS)” was tested. Which calcium oscillation score did it give?
Answer: 9.04 % of control

Question: “TAGCCCACCCATCAATTTGG (sugars l3 d14 l3, PS)” was tested. Which calcium oscillation score did it give?
Answer: 7.77 % of control

Question: How did the calcium oscillation score turn out when “ACTTATCTATCCATCTAT (sugars l4 d11 l3, PS)” was run?
Answer: 80.2 % of control

Question: For “CCTCCTGGTTTATGATGGAT (sugars l3 d14 l3, PS)”, which calcium oscillation score is on record?
Answer: 58.3 % of control

Question: How did the calcium oscillation score turn out when “ACTTTATTTCCAAATTCACTT (sugars l5 d11 l5, PS)” was run?
Answer: 121 % of control

Question: How did the calcium oscillation score turn out when “TTACCATCCTATCTTCTA (sugars l2 d13 l3, PS)” was run?
Answer: 90.3 % of control

Question: With “ACTGCTCAGCTAAGACCCTC (sugars l3 d14 l3, PS)” as the sequence, how does the calcium oscillation score read?
Answer: 23.9 % of control

Question: With AACATCACCAGCCTTC (sugars l3 d9 l4, PS) as the sequence, how does the calcium oscillation score read?
Answer: 50.7 % of control

Question: How did the calcium oscillation score turn out when “CTTCTAGTTATACAGTTGGC (sugars l3 d14 l3, PS)” was run?
Answer: 40.5 % of control

Question: With “CCAGCGTGATCTTCCATCAC (sugars lldllddddddddddlldll, PS)” as the sequence, how does the calcium oscillation score read?
Answer: 121 % of control

Question: For “CCTCCACCCTTACACAT (sugars l2 d13 l2, PS)”, which calcium oscillation score is on record?
Answer: 55.6 % of control

Question: For CAAACAGGATACAGT (sugars l3 d9 l3, PS), which calcium oscillation score is on record?
Answer: 49.6 % of control

Question: How did the calcium oscillation score turn out when “GAACTTCTAGTTATACAGTT (sugars l3 d14 l3, PS)” was run?
Answer: 26.2 % of control

Question: Which calcium oscillation score does the source give for CTTACACATAGCTTCT (sugars l4 d8 l4, PS) here?
Answer: 47.1 % of control

Question: Which calcium oscillation score does the source give for “TCCACAAACCAACTCAACA (sugars l2 d13 l4, PS)” here?
Answer: 102 % of control

Question: TCCACCCTTACACATA (sugars l3 d11 l2, PS) was tested. Which calcium oscillation score did it give?
Answer: 48.8 % of control
